The values that follow are results of earlier work, collected in patent US8633194B2, “Pharmaceutical composition of piperazine derivatives” (UCB Pharma, S.A., priority 2004, dated 2014).

The data set addresses histamine H1-receptor (Homo sapiens, UniProt P35367). To be noted: in vitro.

Sequence of histamine H1-receptor (P35367 whole entry, species assumed): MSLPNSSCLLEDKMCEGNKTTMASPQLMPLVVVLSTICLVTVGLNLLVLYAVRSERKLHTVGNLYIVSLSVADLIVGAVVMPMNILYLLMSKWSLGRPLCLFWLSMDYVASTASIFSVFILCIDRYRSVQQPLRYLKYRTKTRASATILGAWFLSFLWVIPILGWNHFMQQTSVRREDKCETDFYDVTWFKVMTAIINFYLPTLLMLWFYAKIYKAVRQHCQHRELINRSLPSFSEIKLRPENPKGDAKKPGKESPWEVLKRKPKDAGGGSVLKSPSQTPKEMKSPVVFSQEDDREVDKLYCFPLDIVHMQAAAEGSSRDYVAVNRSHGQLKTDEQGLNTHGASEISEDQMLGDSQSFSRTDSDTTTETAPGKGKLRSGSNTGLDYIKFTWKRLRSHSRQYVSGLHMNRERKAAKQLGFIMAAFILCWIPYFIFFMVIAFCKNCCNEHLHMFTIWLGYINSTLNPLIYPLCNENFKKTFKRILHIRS

`O=C(O)COCCN1CCN(C(c2ccc(F)cc2)c2ccc(F)cc2)CC1` [Efletirizine, 2-[2-[4-[bis(4-fluorophenyl)methyl]-1-piperazinyl]ethoxy]acetic acid]: the “Affinity for H1-receptors” value is given as “high affinity” and the “Selectivity for H1-receptors” value is recorded as “selectivity”.
